Assays:
[1] = target: JAK1 (recombinant purified GST-tagged catalytic domain) (Homo sapiens (Human), UniProt P23458); assay: biochemical;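 further: biochemical assay with HTRF read-out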
[2] = target: JAK2 (recombinant purified GST-tagged catalytic domain) (Homo sapiens (Human), UniProt O60674); assay: biochemical;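 further: biochemical JAK kinase assay with HTRF detection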
Chain of JAK2 (recombinant purified GST-tagged catalytic domain) (O60674 849-1124): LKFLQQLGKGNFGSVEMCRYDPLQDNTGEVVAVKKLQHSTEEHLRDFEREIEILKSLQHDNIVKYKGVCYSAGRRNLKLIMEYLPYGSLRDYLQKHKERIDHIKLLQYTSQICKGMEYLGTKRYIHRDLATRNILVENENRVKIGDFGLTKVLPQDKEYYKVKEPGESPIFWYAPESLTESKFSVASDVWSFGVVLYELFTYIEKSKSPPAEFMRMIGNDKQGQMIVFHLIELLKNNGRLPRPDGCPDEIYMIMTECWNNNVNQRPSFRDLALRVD

Chain of JAK1 (recombinant purified GST-tagged catalytic domain) (P23458 875-1153): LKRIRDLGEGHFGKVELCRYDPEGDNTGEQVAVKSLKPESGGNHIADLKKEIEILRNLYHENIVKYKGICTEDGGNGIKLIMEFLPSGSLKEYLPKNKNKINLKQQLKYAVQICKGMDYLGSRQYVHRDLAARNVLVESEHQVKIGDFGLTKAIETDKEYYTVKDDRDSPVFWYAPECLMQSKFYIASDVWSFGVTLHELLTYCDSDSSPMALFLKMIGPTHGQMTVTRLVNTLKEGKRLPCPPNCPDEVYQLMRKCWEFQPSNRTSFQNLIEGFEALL

Row | Structure (SMILES) | IC50 [1] [nM] | IC50 [2] [nM]
1 | N#C[C@H]1C[C@H](NCC2(O)CC2)CC[C@@H]1n1cc(C(N)=O)c(Nc2ccc(C(F)(F)F)cc2)n1 (single isomer, unassigned) [Example 28-35, 1-[(1S,2S,4R or 1R,2R,4S)-2-cyano-4-{[(1-hydroxycyclo-propyl)methyl]amino}cyclo-hexyl]-3-{[4-(trifluoro-methyl)phenyl]amino}-1H-pyrazole-4-carboxamide] | 1 | 48
2 | N#C[C@@H]1C[C@H](C(=O)NC2CC2)CC[C@H]1n1cc(C(N)=O)c(Nc2ccc(Cl)cc2)n1 (single isomer, unassigned) [Example 35-19, 3-[(4-chlorophenyl)amino]-1-[(1R,2R,4R or 1S,2S,4S)-2-cyano-4-(cyclopropylcarbamoyl)cyclohexyl]-1H-pyrazole-4-carboxamide] | 5 | 23
3 | CC(C)(O)C1CN([C@@H]2CC[C@H](n3cc(C(N)=O)c(Nc4ccc(C(F)(F)F)cc4)n3)[C@@H](C#N)C2)C1 (single isomer, unassigned) [Example 28-7, 1-{(1S,2S,4R or 1R,2R,4S)-2-cyano-4-[3-(1-hydroxy-1-methylethyl)azetidin-1-yl]cyclohexyl}-3-{[4-(trifluoro-methyl)phenyl]amino}-1H-pyrazole-4-carboxamide] | 0.4 | 49
4 | N#C[C@H]1C[C@H](O)CCC1n1cc(C(N)=O)c(Nc2ccc(S(=O)(=O)C(F)F)cc2)n1 (mixture of isomers) [Example 14, 1-[(1S,2S,4R and 1R,2R,4S)-2-Cyano-4-hydroxycyclohexyl]-3-({4-[(difluoromethyl)sulfonyl]phenyl}amino)-1H-pyrazole-4-carboxamide] | 0.32 | 3
5 | Cn1cc(-c2cncc(Nc3nn(C4CCCC[C@@H]4C#N)cc3C(N)=O)c2)cn1 (single isomer, unassigned) [Example 21-1, 1-[(1S,2S or 1R,2R)-2-Cyanocyclohexyl]-3-{[5-(1-methyl-1H-pyrazol-4-yl)pyridin-3-yl]amino}-1H-pyrazole-4-carboxamide] | 6 | 73
6 | N#C[C@H]1C[C@@H](N2CC3(CCC3)C2)CC[C@@H]1n1cc(C(N)=O)c(Nc2ccnc(F)c2)n1 (single isomer, unassigned) [Example 28-133, 1-[(1S,2S,4S or 1R,2R,4R)-4-(2-azaspiro[3.3]hept-2-yl)-2-cyanocyclohexyl]-3-[(2-fluoropyridin-4-yl)amino]-1H-pyrazole-4-carboxamide] | 0.5 | 36
7 | COC(=O)C1CC[C@H](C#N)C(n2cc(C(N)=O)c(Nc3ccccc3)n2)C1 (mixture of isomers) [Example 2-4, methyl (3R,4R and 3S,4S)-3-[4-carbamoyl-3-(phenylamino)-1H-pyrazol-1-yl]-4-cyanocyclohexanecarboxylate] | 423 | > 1500
8 | N#C[C@H]1C[C@H](O)CC[C@@H]1n1cc(C(N)=O)c(Nc2ccc([C@@H](O)C(F)(F)F)cc2)n1 (single isomer, unassigned) [Example 25-15, 1-[(1S,2S,4R or 1R,2R,4S)-2-cyano-4-hydroxycyclohexyl]-3-({4-[(1R or 1S)-2,2,2-trifluoro-1-hydroxyethyl]phenyl}amino)-1H-pyrazole-4-carboxamide] | 0.3 | 3
9 | N#C[C@H]1CCCC[C@@H]1n1cc(C(N)=O)c(Nc2ccnnc2)n1 (single isomer, unassigned) [Example 17-53, 1-[(1S,2S or 1R,2R)-2-cyanocyclohexyl]-3-(pyridazin-4-ylamino)-1H-pyrazole-4-carboxamide] | 3 | 28
10 | CS(=O)(=O)N[C@H]1CC[C@H](n2cc(C(N)=O)c(Nc3ccc(Cl)cc3)n2)[C@@H](C#N)C1 (racemic) [Example 38-4, 3-[(4-chlorophenyl)amino]-1-{(1S,2S,4R and 1R,2R,4S)-2-cyano-4-[(methylsulfonyl)amino]cyclohexyl}-1H-pyrazole-4-carboxamide] | 0.5 | 5
11 | CN[C@@H]1CC[C@H](n2cc(C(N)=O)c(Nc3ccc(Cl)cc3)n2)[C@@H](C#N)C1 (single isomer, unassigned) [Example 28-42, 3-[(4-chlorophenyl)amino]-1-[(1S,2S,4R or 1R,2R,4S)-2-cyano-4-(methylamino)cyclohexyl]-1H-pyrazole-4-carboxamide] | 2 | 36
12 | N#Cc1ccc(Nc2nn([C@H]3CC[C@@H](O)C[C@@H]3C#N)cc2C(N)=O)cc1 (single isomer, unassigned) [Example 25-4, 1-[(1S,2S,4R or 1R,2R,4S)-2-cyano-4-hydroxycyclohexyl]-3-[(4-cyanophenyl)amino]-1H-pyrazole-4-carboxamide] | 0.55 | 3
13 | C[C@H](N[C@H]1CC[C@H](n2cc(C(N)=O)c(Nc3ccc(OC(F)(F)F)cc3)n2)[C@@H](C#N)C1)C1CC1 (single isomer, unassigned) [Example 28-91, 1-[(1S,2S,4S or 1R,2R,4R)-2-cyano-4-{[(1S)-1-cyclopropylethyl]amino}cyclo-hexyl]-3-{[4-(trifluoromethoxy)phenyl]amino}-1H-pyrazole-4-carboxamide] | 1 | 65
14 | N#C[C@H]1C[C@@H](N2CCC2)CC[C@@H]1n1cc(C(N)=O)c(Nc2ccccc2)n1 (single isomer, unassigned) [Example 28-4, 1-((1R,2R,4R or 1S,2S,4S)-4-(Azetidin-1-yl)-2-cyanocyclohexyl)-3-(phenylamino)-1H-pyrazole-4-carboxamide] | 0.75 | 39
15 | CC(=O)O[C@H]1C[C@H](C#N)[C@@H](n2cc(C(N)=O)c(Nc3ccc(C(F)(F)F)cc3)n2)C[C@@H]1O [Example 41] | 20 | 184
16 | N#C[C@H]1C[C@@H](C(=O)NC(C2CC2)C2CC2)CC[C@@H]1n1cc(C(N)=O)c(Nc2ccc(Cl)cc2)n1 (single isomer, unassigned) [Example 35-21, 3-[(4-chlorophenyl)amino]-1-{(1S,2S,4S or 1R,2R,4R)-2-cyano-4-[(dicyclopropylmethyl)carbamoyl]cyclohexyl}-1H-pyrazole-4-carboxamide] | 25 | 500
17 | COCCN[C@H]1CCC(n2cc(C(N)=O)c(Nc3ccc(Cl)cc3)n2)[C@@H](C#N)C1 (single isomer, unassigned) [Example 28-236, 3-[(4-chlorophenyl)amino]-1-{(1S,2S,4S or 1R,2R,4R)-2-cyano-4-[(2-methoxyethyl)amino]cyclo-hexyl}-1H-pyrazole-4-carboxamide] | 0.9 | 23
18 | Cc1noc(-c2ccc(Nc3nn([C@H]4CCCC[C@@H]4C#N)cc3C(N)=O)cc2)n1 (racemic) [Example 17-6, 1-[(1S,2S and 1R,2S)-2-cyanocyclohexyl]-3-{[4-(3-methyl-1,2,4-oxadiazol-5-yl)phenyl]amino}-1H-pyrazole-4-carboxamide] | 4 | 25
19 | N#C[C@H]1C[C@@H](N2CCC2)CC[C@@H]1n1cc(C(N)=O)c(Nc2ccc(C(F)(F)F)cc2)n1 (single isomer, unassigned) [Example 28-1, 1-((1S,2S,4S or 1R,2R,4R)-4-(azetidin-1-yl)-2-cyanocyclohexyl)-3-((4-(trifluoromethyl)phenyl)amino)-1H-pyrazole-4-carboxamide] | 0.4 | 23

Source: US8962608B2, “Cycloalkylnitrile pyrazole carboxamides as janus kinase inhibitors” (Merck Sharp & Dohme Corp., priority 2011, dated 2015)
